Numbered stars: 1 amine (or outer) side, 2 acyl side, 3 side chain; on linkers, the order of the positions; unused ones are H or OH. Bridge positions count the residues as written; N and C are the ends. Square brackets hold non-standard residues; d marks the D form. Peptide text beside a SMILES is read from it. X1 = O=C(CC1(S[*:2])CCCCC1)[*:1]
Legend:
[1] = biological target: T1, receptor in the porcine renal medullary membrane (vasopressin V2 -receptors) (Sus scrofa, UniProt P32307); assay: [3H]LVP binding, porcine renal medullary membrane (Kbind); settings: competition with [3H]LVP binding, Kb = IC50/(1 + L/KD)
T1 construct: in the porcine renal medullary membrane; from tissue; host or cells: porcine renal medullary membranes
T1 sequence (P32307 whole entry): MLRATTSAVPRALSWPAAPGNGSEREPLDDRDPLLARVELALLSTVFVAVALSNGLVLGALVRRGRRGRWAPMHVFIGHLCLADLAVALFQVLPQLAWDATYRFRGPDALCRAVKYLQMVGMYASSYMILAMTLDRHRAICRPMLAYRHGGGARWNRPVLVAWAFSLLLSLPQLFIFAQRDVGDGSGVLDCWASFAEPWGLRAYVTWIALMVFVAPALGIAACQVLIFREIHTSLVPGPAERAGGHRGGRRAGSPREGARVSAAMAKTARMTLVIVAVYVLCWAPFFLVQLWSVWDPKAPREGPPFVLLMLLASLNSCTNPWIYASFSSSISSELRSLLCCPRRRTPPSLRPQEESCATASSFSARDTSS
Description: (§1) V2 -antagonistic activity toward the natural anti-diuretic hormone (anti-ADH activity) is determined, in vitro, in the medullary tissue of hog or human kidneys and, in vivo, in the hydropenic rat. The in vitro assay procedures for vasopressin stimulated adenylate cyclase activation or vasopressin binding activity are described by F. Stassen et al., J. Pharmacology and Experimental Therapeutics, 223, 50-54 (1982). V1 -antagonistic activity is determined by procedures using the rat thoracic aorta tissue and plasma membranes of rat liver. These procedures are described in the noted Stassen publication and in a publication at the 1st International Conference on Diuretics, Miami, Fla., March (1984). Oxytocin antagonism is determined as described by W. Sawyer et al., Endocrinology, 106 81 (1979). | ^a Kbind is a measure of the affinity of a ligand for a receptor | in the porcine renal medullary membrane. It is derived from the equation | for competitive inhibition Kb = IC50 /(1 + L/KD) where | IC50 is the concentration of the ligand for 50% inhibition of [^ | H]LVP binding, L is the concentration of the ligand, and KD is the | dissociation constant of [^3 H]LVP.

[2] = biological target: T2, receptor in the human liver membrane tissue (V1) (Homo sapiens, UniProt P37288); assay: Binding to human liver membranes V1 (Kbind)
T2 construct: in the human liver membrane tissue; from tissue; host or cells: human liver membranes
T2 sequence (P37288 whole entry): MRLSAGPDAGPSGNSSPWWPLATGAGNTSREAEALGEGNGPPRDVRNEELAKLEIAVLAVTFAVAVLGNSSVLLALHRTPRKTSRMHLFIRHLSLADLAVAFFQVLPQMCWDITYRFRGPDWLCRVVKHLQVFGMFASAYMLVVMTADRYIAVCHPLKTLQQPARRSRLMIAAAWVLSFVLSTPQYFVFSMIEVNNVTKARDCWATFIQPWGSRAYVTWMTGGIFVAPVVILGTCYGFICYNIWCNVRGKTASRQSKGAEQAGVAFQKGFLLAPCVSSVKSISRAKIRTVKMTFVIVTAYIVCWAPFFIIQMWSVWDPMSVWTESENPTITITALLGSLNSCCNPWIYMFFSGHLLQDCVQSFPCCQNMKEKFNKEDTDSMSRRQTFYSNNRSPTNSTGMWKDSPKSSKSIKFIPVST
Description: as §1, with “(1979).” for “(1979). | ^a Kbind is a measure of the affinity of a ligand for a receptor | in the porcine renal medullary membrane. It is derived from the equation | for competitive inhibition Kb = IC50 /(1 + L/KD) where | IC50 is the concentration of the ligand for 50% inhibition of [^ | H]LVP binding, L is the concentration of the ligand, and KD is the | dissociation constant of [^3 H]LVP.”
^d Kbind is a measure of the affinity of a ligand for a receptor
in the human liver membrane tissue. It is derived from the equation in […]

[3] = biological target: T3, LVP stimulated adenylate cyclase of pig kidney medullary membrane (Sus scrofa, UniProt P32307); assay: Inhibition of LVP stimulated adenylate cyclase of pig kidney medullary membrane; type: biochemical
T3 construct: stimulated adenylate cyclase of pig kidney medullary membrane; from tissue; host or cells: pig kidney medullary membranes
T3 sequence (P32307 whole entry): as the sequence (P32307 whole entry) above
Description: V2 -antagonistic activity toward the natural anti-diuretic hormone (anti-ADH activity) is determined, in vitro, in the medullary tissue of hog or human kidneys and, in vivo, in the hydropenic rat. The in vitro assay procedures for vasopressin stimulated adenylate cyclase activation or vasopressin binding activity are described by F. Stassen et al., J. Pharmacology and Experimental Therapeutics, 223, 50-54 (1982). V1 -antagonistic activity is determined by procedures using the rat thoracic aorta tissue and plasma membranes of rat liver. These procedures are described in the noted Stassen publication and in a publication at the 1st International Conference on Diuretics, Miami, Fla., March (1984). Oxytocin antagonism is determined as described by W. Sawyer et al., Endocrinology, 106 81 (1979). | ^b Ki is the inhibition constant measured for inhibition of LVP | stimulated adenylate cyclase of pig kidney medullary membrane, and is | derived from the equation for competitive inhibition as described.

| Ki [1] [nM] | Ki [2] [nM] | Ki [3] [nM] | SMILES |
| --- | --- | --- | --- |
| 9.1 | 1.3 |  | CCOc1ccc(C[C@H]2NC(=O)CC3(CCCCC3)SSC[C@@H](C(=O)N[C@@H](CCCNC(=N)N)C(N)=O)NC(=O)[C@H](CC(N)=O)NC(=O)[C@H](C(C)C)NC(=O)[C@H](Cc3ccccc3)NC2=O)cc1 [compound 2] ([dY](Et)FVNCR-NH2; linker N-5 via X1) |
| 2.6 | 4.41 | 1.54 | CCOc1ccc(C[C@H]2NC(=O)CC3(CCCCC3)SSC[C@@H](C(=O)N[C@@H](CCCNC(=N)N)C(=O)N[C@@H](CCCNC(=N)N)C(=O)N[C@@H](CCCNC(=N)N)C(N)=O)NC(=O)[C@H](CC(N)=O)NC(=O)[C@H](C(C)C)NC(=O)[C@H](Cc3ccccc3)NC2=O)cc1 [No. 1, [1-(β-mercapto-β,β-cyclopentamethylenepropionic acid)-2-(O-ethyl)-D-tyrosine-4-valine-7-arginine-8-arginine-9-arginine]-vasopressin] ([dY](Et)FVNCRRR-NH2; linker N-5 via X1) |
| 3.4 | 1.3 | 1.7 | CCOc1ccc(C[C@H]2NC(=O)CC3(CCCCC3)SSC[C@@H](C(=O)N[C@@H](CCCNC(=N)N)C(=O)N[C@@H](CCCNC(=N)N)C(N)=O)NC(=O)[C@H](CC(N)=O)NC(=O)[C@H](C(C)C)NC(=O)[C@H](Cc3ccccc3)NC2=O)cc1 [compound 3] ([dY](Et)FVNCRR-NH2; linker N-5 via X1) |
